The results in this text go back to patent US20240360175A1, “PEPTIDE DERIVATIVES AND RELATED USES AS OREXIN AGONISTS” (Centessa Pharmaceuticals (UK) Limited, priority 2021, published 2024).

Like-named read-outs stand apart in the source and are kept apart here. Numbered stars: 1 amine (or outer) side, 2 acyl side, 3 side chain; on linkers, the order of the positions; unused ones are H or OH. Square brackets hold non-standard residues; d marks the D form. Peptide text beside a SMILES is read from it. * marks the point of attachment. X8 = CCCCCC[C@H](NC(=O)[C@@H](NC[C@H](CC(C)C)N*)[C@@H](C)O)C(N)=O; Malonyl(2,2-Me2,histaminyl) = CC(C)(C(=O)NCCc1cnc[nH]1)C(=O)*; X7 = O=C([C@@H](N[*:1])c1cccc2ccccc12)[*:2]; hArg(Et2) = CCN=C(NCC)NCCCC[C@H](N)C(=O)O; PEG8 = NCCOCCOCCOCCOCCOCCOCCOCCOCCC(=O)O; Phg(4-OMe) = COc1ccc([C@H](N)C(=O)O)cc1; X3 = NCCc1cccc(CCN(CC(=O)[*:2])[*:1])c1; Gly(NCH2CH2Ph) = O=C(O)CNCCc1ccccc1; PEG6 = NCCOCCOCCOCCOCCOCCOCCC(=O)O; Hyp = O=C(O)[C@@H]1C[C@@H](O)CN1; Hpg = N[C@H](C(=O)O)c1ccc(O)cc1; NMeN = CN[C@@H](CC(N)=O)C(=O)O; Aoc(2) = CCCCCC[C@H](N)C(=O)O; PEG4 = NCCOCCOCCOCCOCCC(=O)O; Phg = N[C@H](C(=O)O)c1ccccc1

Test [1] concerns the target T1, human orexin type 1 receptor (hOX1R) (Homo sapiens, UniProt O43613).
T1 construct: expressed in transfected cells
T1 sequence (O43613 1-425): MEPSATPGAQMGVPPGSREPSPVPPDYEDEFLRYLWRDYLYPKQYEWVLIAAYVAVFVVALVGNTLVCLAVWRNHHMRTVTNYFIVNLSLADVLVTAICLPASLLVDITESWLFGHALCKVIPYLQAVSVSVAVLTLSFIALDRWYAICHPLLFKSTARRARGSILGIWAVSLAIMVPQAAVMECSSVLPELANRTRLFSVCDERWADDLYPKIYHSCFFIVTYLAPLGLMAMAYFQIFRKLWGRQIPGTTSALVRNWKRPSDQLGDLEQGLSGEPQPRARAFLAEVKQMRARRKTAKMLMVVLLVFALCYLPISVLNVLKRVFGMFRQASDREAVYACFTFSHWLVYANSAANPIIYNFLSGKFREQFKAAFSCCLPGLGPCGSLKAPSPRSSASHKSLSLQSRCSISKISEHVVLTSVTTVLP
The experiment in a line: Measurement of orexin type 1 receptor agonist activity (FLIPR TETRA intracellular Ca2+ fluorescence). It counts as cell-based. As for the experimental part: (§1) Stable cell line generation. Obtainment of cells stably expressing either human orexin type 2 or human orexin type 1 receptor: to obtain a stable cell line the Orexin receptor cDNA was inserted into pcDNA3.1(+) plasmid vector and clones identified by G418 drug resistance selection. […] A single clone for OX2R—CHO and OX1R—CHO were grown in bulk and frozen to generate a cell bank for routine screening.
(§2) Measurement of orexin type 1 receptor agonist activity. Chinese hamster ovary (CHO) cells expressing human orexin type 1 receptor (hOX1R) were seeded in each well of 384 well black clear bottom plates (BD Flacon) at 10,000 cells per well and cultured for 24 h in an Ham's F12 (Gibco) medium containing 10% fetal calf serum (Sigma Aldrich) under the conditions of 37° C., 5% CO2. After removal of the medium, 50 μL of assay buffer 1 (0.1% bovine serum albumin (Sigma Aldrich), 20 mM HEPES (Molecular Dimensions), […] probenecid (Sigma Aldrich), 1× Calcium 5 dye (Molecular Devices) in Hank's balanced salt solution (Invitrogen)) was added, and the cells were incubated for 60 min under the conditions of 37° C., 5% CO2. A test peptide was dissolved in dimethyl sulfoxide (Sigma Aldrich) to 1 mM, and then diluted with assay buffer 2 (20 mM HEPES, Hank's balanced salt solution, 0.1% bovine serum albumin). For the reaction, a test peptide solution (10 μl) was added using Fluorescent Imaging Plate Reader TETRA (FLIPR TETRA: manufactured by Molecular Devices), a fluorescence value (excitation wavelength 488 nm, measurement wavelength 570 nm) of each well was measured every one second for 2 min, and the agonist activity was determined using the area of the fluorescence value as an indicator of intracellular Ca^2+ concentration. The agonist activity of the test peptide was calculated assuming that the fluorescence value of the well added with only the dilution buffer was 0% and the fluorescence value of the well added with 10 nM human orexin A (Tocris) buffer was 100%. As used herein, Emax indicates the value at 1 μM concentration when orexin A is converted to a full agonist (maximum value of agonist activity: 100%).

Test [2] concerns the target T2, human orexin type 2 receptor (hOX2R) (Homo sapiens, UniProt O43614).
T2 construct: expressed in transfected cells
T2 sequence (O43614 1-444): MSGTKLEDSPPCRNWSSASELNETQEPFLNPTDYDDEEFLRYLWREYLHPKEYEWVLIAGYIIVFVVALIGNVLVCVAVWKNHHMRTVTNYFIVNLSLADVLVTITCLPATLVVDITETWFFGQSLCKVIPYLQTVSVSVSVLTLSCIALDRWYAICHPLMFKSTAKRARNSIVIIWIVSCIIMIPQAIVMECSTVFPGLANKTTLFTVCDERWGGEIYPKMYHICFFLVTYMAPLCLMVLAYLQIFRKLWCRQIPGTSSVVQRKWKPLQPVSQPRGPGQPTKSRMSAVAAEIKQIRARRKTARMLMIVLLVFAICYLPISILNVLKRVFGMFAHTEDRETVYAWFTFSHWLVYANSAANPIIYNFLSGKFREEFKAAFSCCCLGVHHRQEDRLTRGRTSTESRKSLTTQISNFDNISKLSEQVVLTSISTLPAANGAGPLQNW
Description: Measurement of orexin type 2 receptor agonist activity (FLIPR TETRA intracellular Ca2+ fluorescence). In kind it is cell-based. As for the experimental part: as §1
as §2, with “type 2” for “type 1”, “receptor (hOX2R)” for “receptor (hOX1R) were”

Where [3] appears, read: CHO cells expressing hOX1R, agonist activity, Ca2+ fluorescence, read-out: hOX1 pEC50 (converted).
Setting [4] is: CHO cells expressing hOX2R, agonist activity, Ca2+ fluorescence, read-out: hOX2 pEC50 (converted).

In the case of `CCCCCC[C@H](NC(=O)[C@@H](NC(=O)[C@H](CC(C)C)NC(=O)[C@@H](NC(=O)CNC(=O)[C@@H](NC(=O)[C@H](C)NC(=O)[C@H](Cc1c[nH]cn1)NC(=O)[C@H](CC(N)=O)NC(=O)CN(CCc1ccccc1)C(=O)[C@@H](N)CCCCN/C(=N/CC)NCC)c1ccc(OC)cc1)[C@@H](C)CC)[C@@H](C)O)C(N)=O` [Peptide 12] (H-[hArg(Et2)][Gly(NCH2CH2Ph)]NHA[Phg(4-OMe)]GILT[Aoc(2)]-NH2), the EC50 in test [1] (setting [3]) was over 10 nM; in test [2] (setting [4]) it was under 0.1 nM.

Take `CCCCCC[C@H](NC(=O)[C@@H](NC(=O)[C@H](CC(C)C)NC(=O)[C@@H](NC(=O)CNC(=O)[C@@H](NC(=O)[C@H](C)NC(=O)[C@@H]1C[C@@H](O)CN1C(=O)[C@H](CC(N)=O)NC(=O)CN(CCc1ccccc1)C(=O)[C@@H](N)CCCCNC(=NCC)NCC)c1cccc2ccccc12)[C@@H](C)CC)[C@@H](C)O)C(N)=O` [Peptide 9] (H-[hArg(Et2)][Gly(NCH2CH2Ph)]N[Hyp]A[X7]GILT[Aoc(2)]-NH2; N-terminus assumed): the EC50 in test [1] (setting [3]) was over 10 nM; in test [2] (setting [4]) it was under 0.1 nM.

With `CCCCCC[C@H](NC(=O)[C@@H](NC[C@H](CC(C)C)NC(=O)[C@@H](NC(=O)CNC(=O)[C@@H](NC(=O)[C@H](C)NC(=O)[C@@H]1C[C@@H](O)CN1C(=O)[C@H](CC(N)=O)NC(=O)CN(CCc1ccccc1)C(=O)CCOCCOCCOCCOCCOCCOCCN)c1ccccc1)[C@@H](C)CC)[C@@H](C)O)C(N)=O` [Peptide 1] (H-[PEG6][Gly(NCH2CH2Ph)]N[Hyp]A[Phg]GI-X8), the EC50 in test [1] (setting [3]) was over 10 nM; in test [2] (setting [4]), under 0.1 nM.

For `CCCCCC[C@H](NC(=O)[C@@H](NC(=O)[C@H](CC(C)C)NC(=O)[C@@H](NC(=O)CNC(=O)[C@@H](NC(=O)[C@H](C)NC(=O)[C@@H]1C[C@@H](O)CN1C(=O)[C@H](CC(N)=O)NC(=O)CN(CCc1ccccc1)C(=O)[C@H](CCCNC(=N)N)NC(=O)CCOCCOCCOCCOCCOCCOCCOCCOCCN)c1ccccc1)[C@@H](C)CC)[C@@H](C)O)C(N)=O` [Peptide 8] (H-[PEG8]R[Gly(NCH2CH2Ph)]N[Hyp]A[Phg]GILT[Aoc(2)]-NH2), the figures for the EC50 in test [1] (setting [3]) and in test [2] (setting [4]) were over 10 nM and under 0.1 nM, respectively.

Take `CCCCCC[C@H](NC(=O)[C@@H](NC(=O)[C@H](CC(C)C)NC(=O)[C@@H](NC(=O)CNC(=O)[C@@H](NC(=O)[C@H](C)NC(=O)[C@@H]1C[C@@H](O)CN1C(=O)[C@H](CC(N)=O)NC(=O)CN(CCc1ccccc1)C(=O)[C@H](CCCNC(=N)N)NC(=O)CCOCCOCCOCCOCCN)c1ccccc1)[C@@H](C)CC)[C@@H](C)O)C(N)=O` [Peptide 5] (H-[PEG4]R[Gly(NCH2CH2Ph)]N[Hyp]A[Phg]GILT[Aoc(2)]-NH2): the values for the EC50 in test [1] (setting [3]) and in test [2] (setting [4]) were over 10 nM and under 0.1 nM, respectively.

For the compound `CCCCCC[C@H](NC(=O)[C@@H](NC(=O)[C@H](CC(C)C)NC(=O)[C@@H](NC(=O)CNC(=O)[C@@H](NC(=O)[C@H](C)NC(=O)[C@H](Cc1c[nH]cn1)NC(=O)[C@H](CC(N)=O)NC(=O)CN(CCc1ccccc1)C(=O)[C@H](CCCCNC(=NCC)NCC)NC(=O)C(C)(C)C(=O)NCCc1cnc[nH]1)c1ccc(O)cc1)[C@@H](C)CC)[C@@H](C)O)C(N)=O` [Peptide 25] ({Malonyl(2,2-Me2,histaminyl)}-[hArg(Et2)][Gly(NCH2CH2Ph)]NHA[Hpg]GILT[Aoc(2)]-NH2), the results for the EC50 in test [1] and in test [2] were over 10 nM and under 0.1 nM, respectively.

Regarding `CCCCCC[C@H](NC(=O)[C@@H](NC(=O)[C@H](CC(C)C)NC(=O)[C@@H](NC(=O)CNC(=O)[C@@H](NC(=O)[C@H](C)NC(=O)[C@@H]1C[C@@H](O)CN1C(=O)[C@H](CC(N)=O)N(C)C(=O)CN(CCc1cccc(CCN)c1)C(=O)[C@@H](N)CCCNC(=N)N)c1ccccc1)[C@@H](C)CC)[C@@H](C)O)C(N)=O` [Peptide 19] (H-R[X3][NMeN][Hyp]A[Phg]GILT[Aoc(2)]-NH2), the EC50 in test [1] (setting [3]) is over 10 nM; in test [2] (setting [4]) it was under 0.1 nM.
